Values joined by “and” are separate entries in the source; they are usually repeats but may differ in a detail not shown here. Equal entries are not always repeated. Where no end group is shown, it is not given here.
Key:
[1] = tested on: peripheral blood mononuclear cells derived from HLA-A*02:01-positive healthy individuals; assay: CTL inducibility using human peripheral blood mononuclear cells, IFNγ ELISPOT; type: cell-based; conditions: peptide 20 μg/mL, IL-2 100 U/mL, about 2 weeks, FIGS. 39-43
Experimental: (§1) Subsequently, approximately 1×10^5 cells were plated in each well of a 96-well U bottom plate, and cultured at 37° C. under 5% CO2. At this time, human IL-2 and peptide were added at 100 U/mL and 20 μg/mL, respectively. The medium was exchanged every 3 or 4 days and an IFNγ ELISPOT assay was carried out after about 2 weeks. On the day before the assay, ELISPOT plates were treated with anti-IFNγ antibody, and on the day of assay, they were blocked with RPMI1640 medium containing 10% fetal calf serum at room temperature for about 2 hours. The human peripheral blood mononuclear cells in the culture were washed with an AIM-V medium containing 10% human-derived serum and plated in each well of the blocked ELISPOT plate. After culturing at 37° C. under 5% CO2 for 16 to 18 hours, the supernatant was removed and the ELISPOT plates were subjected to color development according to the attached protocol. The number of colored spots was measured with an ELISPOT analyzer manufactured by Cellular Technology Limited. […] In addition, black bars indicate the number of spots detected under peptide stimulation conditions, and white bars indicate the number of spots (controls) detected under no peptide pulse conditions.

[2] = tested on: peripheral blood mononuclear cells derived from HLA-A*24:02-positive healthy individuals; assay: as above; type: cell-based; conditions: peptide 20 μg/mL, IL-2 100 U/mL, about 2 weeks, FIGS. 44, 45
Experimental: as §1

HLA-A*24:02 = HLA-A*24:02 (Homo sapiens, UniProt P04439, D101N/D140Y/D185E/E176V/E190D/F33S/G103R/G107R/I119L/I121M/I306V/K335N/L105A/L180Q/L300P/N151K/N90K/Q86E/Q94H/R106L/R138H/R89G/T104I/T345S/V100E/W191G/Y123F); type: binding
HLA-A*02:01 = molecular target: T1, HLA-A*02:01 (Homo sapiens, UniProt P04439, D140Y/D185E/D98H/E176V/E277Q/G131W/G231S/I119V/I121R/I166T/I218V/L300P/L318F/N151K/N90K/P208A/P217A/Q86G/Q94H/R138H/R169H/T345S); type: binding
T1 construct: T2 cells can usually only express a low level of empty MHC class I molecules on the cell surface; endogenous in cells; host or cells: T2-A24 cells (human lymphoblastoid T2 cells)

[3] = tested on: human colon cancer cell line (SW480); assay: Detection of SP fraction by Hoechst 33342/PI flow cytometry; type: cell-based; conditions: verapamil final concentration 75 μM; Hoechst 33342 5.0 μM; FIG. 1
Experimental: 5% fetal calf serum (FCS (HyClone Laboratories))-supplemented DMEM (Sigma-Aldrich) medium was prepared as a medium and warmed at 37° C. Verapamil (Sigma-Aldrich) was adjusted to 50 mM and diluted to 5 mM using the 5% FCS-supplemented DMEM medium. Hoechst 33342 (Lonza) was adjusted to 250 μg/mL using the 5% FCS-supplemented DMEM medium. DNase I (Qiagen) was adjusted to 1 mg/mL using DDW and sterilized by filtration using a 0.2 μm filter.
A human colon cancer cell line (SW480 (ATCC)) was suspended in 4 mL of the 5% FCS-supplemented DMEM medium, and the number of cells was counted. Furthermore, the 5% FCS-supplemented DMEM medium was added so as to adjust the cell concentration to 10×10^6 cells/mL, thus giving a sample. Using part of the sample, dispensing was carried out; verapamil was not added to a main sample (verapamil(−) sample), and verapamil was added to a secondary sample so as to give a final concentration of 75 μM (verapamil(+) sample). Subsequently, the Hoechst 33342 solution was added to the verapamil(+) sample and the verapamil(−) sample so as to give a Hoechst 33342 final concentration of 5.0 μM. […]
First, cells in the verapamil(−) sample were analyzed, and cells in a cell group (side population (SP)) having low emission intensity compared with a main cell group (main population (MP)) were detected (FIG. 1).

SW480-MP = assay: Cytotoxicity test (LDH release) of CTLs toward SW480-MP without peptide pulse; type: cell-based, human; conditions: CTL induced by IV9, FIG. 10
Experimental: (§2) T2-A24 cells, SW480-SP, SW480-MP, and K562 HLA-class I-deficient leukemia cells (obtained from ATCC) were suspended in 10% FBS-supplemented RPMI at a cell concentration of 1×10^6 cells/mL. Washing was carried out three times with 10 mL of 10% FBS-supplemented RPMI.
(§3) T2-A24 cells were pulsed with IV9 peptide and HIV584-594 peptide as a positive control for T2-A24 cell binding, at a concentration of 20 μg/mL at room temperature for 1 hour. As a negative control, a group without peptide pulses was used. With regard to experimental group of T2-A24 cells, three groups were defined: [1] no peptide pulse, [2] HIV584-594 peptide pulse, and [3] IV9 peptide pulse. In addition, K562 was pulsed with IV9 peptide under the same conditions. Both SW480-SP and SW480-MP groups were used without peptide pulses. After the peptide pulse, the cells were washed twice with PBS. The cells of each group were plated on each well at 1×10^5 cells/100 μL.
(§4) Respective numbers of effector cells (CTLs) were plated on each well so that the effector/target ratio (E/T ratio) became 1, 3, and 9. Effector cells were plated as a spontaneous release well. To the maximum release well, 4% of NP-40-added PBS was added to the target cells so that the final concentration became 2%. […] After 10 minutes, fluorescence intensity of each well was measured by Terra Scan. Cytotoxic activity was calculated using the equation below. […]

T2-A24 cells = assay: Cytotoxicity test (LDH release) of CTLs toward peptide-pulsed T2-A24 cells; type: cell-based, human; conditions: peptide pulse 20 μg/mL; E/T ratio 1, 3, 9; CTL induced by IV9; FIG. 10
Experimental: as §2, §3, §4

4 (HLSVLFGHV) [compound 4]
induction of peptide-specific CTLs from PBMC [1]: able to induce peptide-specific CTLs

5 (SVLFGHVECL) [compound 5]
induction of peptide-specific CTLs from PBMC [2]: has CTL inducibility in both HLA-A02 type and HLA-A24 type subjects | induction of peptide-specific CTLs from PBMC [1]: able to induce peptide-specific CTLs

6 (KILCDRGAKL) [compound 6]
induction of peptide-specific CTLs from PBMC [1]: able to induce peptide-specific CTLs

8 (HFGLSELVAFYV) [compound 8]
induction of peptide-specific CTLs from PBMC [2]: has CTL inducibility in both HLA-A02 type and HLA-A24 type subjects | induction of peptide-specific CTLs from PBMC [1]: able to induce peptide-specific CTLs

9 (CYSLSGHTAL) [compound 9]
induction of peptide-specific CTLs from PBMC [1]: able to induce peptide-specific CTLs

17 (SILCAKQLV) [compound 17]
MFI HLA-A24 (HLA-A*24:02): 1.3

20 (HVLMHMMLEA) [compound 20]
MFI HLA-A24 (HLA-A*24:02): 1.3

23 (YLLLEPEGII) [compound 23]
MFI HLA-A24 (HLA-A*24:02): 1.4

28 (RIYPPQFHKV) [compound 28]
MFI HLA-A02 (HLA-A*02:01): 1.4

34 (FEVEDENMVL) [compound 34]
MFI HLA-A24 (HLA-A*24:02): 1.4

40 (QYVLKVTSV) [compound 40]
MFI HLA-A24 (HLA-A*24:02): 1.3

41 (LLLNHGAARI) [compound 41]
MFI HLA-A02 (HLA-A*02:01): 1.3

COc1ccc(CCN(C)CCCC(C#N)(c2ccc(OC)c(OC)c2)C(C)C)cc1OC (centres unmarked) [verapamil, Verapamil]
SP cells in flow cytometry [3]: SP cells disappeared

EADPTGHSY [HLA-A*02:01 Negative control, MAGE-1161-169 peptide as an HLA-A02-negative control, reference compound]
HLA-A*02:01 Negative control (MFI) (HLA-A*02:01): 1.0

IYPPQFHKV [SEQ ID No. 3]
cytotoxic activity of CTLs toward SW480-MP (SW480-MP): only a similar cytotoxic activity as [1] no peptide pulse group and [2] HIV peptide pulse group | cytotoxic activity of CTLs toward peptide-pulsed T2-A24 cells (T2-A24 cells): high cytotoxic activity

RGYVYQGL [HLA-A*24:02 Negative control, reference compound]
HLA-A*24:02 Negative control (MFI) (HLA-A*24:02): 1.0

RYLRDQQLL [HLA-A*24:02 Positive control, HIV584-592 peptide as an HLA-A24-positive control, reference compound]
HLA-A*24:02 Positive control (MFI) (HLA-A*24:02): 2.6 and 3.3 and 2.8

From patent US10765729B2, “Tumor antigen peptide” (Sapporo Medical University, priority 2014, dated 2020)
